Reference: ChEMBL document CHEMBL5375972, “Discovery of Novel 2,3-Dihydro-1H-indene-5-sulfonamide NLRP3 Inflammasome Inhibitors Targeting Colon as a Potential Therapy for Colitis” (J Med Chem, 2023)
The source made the active and inactive calls. No cut-off for these calls is given here.

Columns and labels:
Assay type in all cases: functional, organism-based
Details in all cases: time 9.0 day
Mus musculus [1] = assay: Anti-inflammatory activity in DSS-induced ulcerative colitis C57BL/6 mouse model assessed as reduction in disease activity index (DAI) score at 10 mg/kg,ip administrated for 9 days
Mus musculus [2] = assay: Anti-inflammatory activity in DSS-induced ulcerative colitis C57BL/6 mouse model assessed as increase in body weight at 10 mg/kg,ip administrated for 9 days
Mus musculus [3] = assay: Anti-inflammatory activity in DSS-induced ulcerative colitis C57BL/6 mouse model assessed as reduction in histological colitis severity score at 10 mg/kg,ip administrated for 9 days
Mus musculus [4] = assay: Anti-inflammatory activity in DSS-induced ulcerative colitis C57BL/6 mouse model assessed as increase in colon length at 10 mg/kg,ip administrated for 9 days

**Q.** Which Activity (Mus musculus [1]) does the source give for `CC(C)(O)c1coc(S(=O)(=O)NC(=O)Nc2c3c(cc4c2CCC4)CCC3)c1` here?
**A.** Its Activity is “Active”.

**Q.** And the Activity (Mus musculus [2])?
**A.** Its Activity is “Active”.

**Q.** And the Activity (Mus musculus [3])?
**A.** The Activity was “inactive”.

**Q.** What about the Activity (Mus musculus [4]) of the same molecule?
**A.** The Activity was “Active”.
